Reference: ChEMBL document CHEMBL1201862, “PubChem BioAssay data set” (2004)
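Grown in 96-well plates, cells were treated for 48 hours with each compound at five concentrations. Insufficient inhibition: endpoint recorded as highest concentration tested. GI50 marks 50% less growth.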 The source made the active and inactive calls. Cut-off read from the data, not from the text of the source: active = GI50 up to about 1.1 µM and inactive = higher.

Assays:
Test in all cases: NCI anticancer screen, dose series, 48 h
[1] = system: SF-268
[2] = system: TK-10
[3] = system: NCI-H460
[4] = system: BT-549
[5] = system: K562
[6] = system: Hs-578T
[7] = system: COLO 205
[8] = system: SW-620
[9] = system: MCF7
[10] = system: SF-295
[11] = system: KM12
[12] = system: HOP-92
[13] = system: EKVX
[14] = system: HL-60
[15] = system: M14
[16] = system: IGROV-1
[17] = system: A549
[18] = system: SNB-75
[19] = system: UO-31
[20] = system: RXF 393

Structure (SMILES)	GI50 [1]	GI50 [2]	GI50 [3]	GI50 [4]	GI50 [5]	GI50 [6]	GI50 [7]	GI50 [8]	GI50 [9]	GI50 [10]	GI50 [11]	GI50 [12]	GI50 [13]	GI50 [14]	GI50 [15]	GI50 [16]	GI50 [17]	GI50 [18]	GI50 [19]	GI50 [20]
COc1cc2c(cc1O)CC1c3c(cc(O)c(OC)c3-2)CCN1C (stereo not given)	> 100 µM (inactive)	> 100 µM (inactive)	> 100 µM (inactive)	> 100 µM (inactive)	> 100 µM (inactive)	> 100 µM (inactive)	> 73.5 µM (inactive)	> 100 µM (inactive)	> 100 µM (inactive)	> 100 µM (inactive)	> 100 µM (inactive)	> 78.3 µM (inactive)	> 100 µM (inactive)	91.4 µM (inactive)	> 100 µM (inactive)	> 100 µM (inactive)	> 100 µM (inactive)	81.1 µM (inactive)	> 100 µM (inactive)	> 100 µM (inactive)
CC(C)=CCC[C@@H](C)C1=C(Nc2ccccc2F)C(=O)C(C)=C(O)C1=O	5.47 µM (inactive)	5.82 µM (inactive)	3.92 µM (inactive)	8.09 µM (inactive)	4.45 µM (inactive)	5.31 µM (inactive)	2.9 µM (inactive)	5.98 µM (inactive)	9.95 µM (inactive)	3.65 µM (inactive)	4.16 µM (inactive)	9.31 µM (inactive)	5.12 µM (inactive)	1 µM (active)	14.2 µM (inactive)	4.54 µM (inactive)	4.09 µM (inactive)	12.7 µM (inactive)	4.45 µM (inactive)	16.8 µM (inactive)
NC(=O)CN1CCN(c2nc(N3CCCC3)c3nc(Cl)c(NCc4ccccc4)nc3n2)CC1	8.63 µM (inactive)	14.2 µM (inactive)	9.12 µM (inactive)	10 µM (inactive)	9.86 µM (inactive)	9.66 µM (inactive)	8.75 µM (inactive)	11.5 µM (inactive)	8.87 µM (inactive)	8.89 µM (inactive)	10.6 µM (inactive)	8.36 µM (inactive)	11.8 µM (inactive)	8.77 µM (inactive)	9.91 µM (inactive)	12.2 µM (inactive)	12.9 µM (inactive)	10.7 µM (inactive)	10.7 µM (inactive)	7.96 µM (inactive)
CN1CCN(c2cc3[nH]c(-c4ccc(Cl)cc4)nc3cc2F)CC1	16.2 µM (inactive)	4.37 µM (inactive)	11.5 µM (inactive)	15.8 µM (inactive)	3.78 µM (inactive)	16.1 µM (inactive)	18.2 µM (inactive)	21.8 µM (inactive)	7.82 µM (inactive)	15.2 µM (inactive)	10.8 µM (inactive)	25.4 µM (inactive)	22.2 µM (inactive)	> 10 µM (inactive)	2.84 µM (inactive)	15.7 µM (inactive)	17.6 µM (inactive)	14.7 µM (inactive)	7.1 µM (inactive)	13.8 µM (inactive)
CCN1CCC(O)(/C=C/c2ccc(C)cc2C)C(C(=O)/C=C/c2ccc(C)cc2C)C1 (stereo not given)	2.4 µM (inactive)	1.64 µM (inactive)	1.35 µM (inactive)	2.79 µM (inactive)	3.13 µM (inactive)	2.09 µM (inactive)	1.98 µM (inactive)	3.16 µM (inactive)	2.69 µM (inactive)	2.08 µM (inactive)	2.33 µM (inactive)	1.85 µM (inactive)	2.74 µM (inactive)	3.35 µM (inactive)	3.55 µM (inactive)	2.89 µM (inactive)	4 µM (inactive)	5.79 µM (inactive)	2.35 µM (inactive)	3.21 µM (inactive)
O=c1[nH]nc(-c2ccc([N+](=O)[O-])cc2)n1/N=C/c1ccc([N+](=O)[O-])cc1	72.9 µM (inactive)	> 100 µM (inactive)	30.4 µM (inactive)	> 100 µM (inactive)	43.7 µM (inactive)	> 100 µM (inactive)	> 100 µM (inactive)	> 100 µM (inactive)	47.9 µM (inactive)	> 100 µM (inactive)	55.3 µM (inactive)	> 100 µM (inactive)	> 100 µM (inactive)	30.4 µM (inactive)	> 100 µM (inactive)	> 100 µM (inactive)	90.8 µM (inactive)	> 100 µM (inactive)	> 100 µM (inactive)	56.9 µM (inactive)
CCN(CC)c1ccc(/C=C2/C[N+](C)(C)C/C(=C/c3ccc(N(CC)CC)cc3)C2=O)cc1	2.58 µM (inactive)	9.84 µM (inactive)	2.92 µM (inactive)	1.61 µM (inactive)	1.01 µM (active)	2.47 µM (inactive)	1.29 µM (inactive)	2.67 µM (inactive)	1.96 µM (inactive)	11.9 µM (inactive)	1.23 µM (inactive)	0.813 µM (active)	5.96 µM (inactive)	0.365 µM (active)	2.4 µM (inactive)	2.19 µM (inactive)	4.92 µM (inactive)	1.62 µM (inactive)	> 58.9 µM (inactive)	2.77 µM (inactive)
COc1cc2ccc1OCc1cccc(n1)COc1ccc(cc1OC)/C=N\c1ccc(cc1)/N=C\2	> 100 µM (inactive)	> 100 µM (inactive)	> 100 µM (inactive)	> 100 µM (inactive)	> 100 µM (inactive)	54.2 µM (inactive)	> 100 µM (inactive)	> 100 µM (inactive)	> 100 µM (inactive)	> 100 µM (inactive)	> 100 µM (inactive)	> 100 µM (inactive)	> 100 µM (inactive)	> 100 µM (inactive)	> 100 µM (inactive)	> 100 µM (inactive)	> 100 µM (inactive)	> 100 µM (inactive)	> 100 µM (inactive)	> 100 µM (inactive)
CN(C)CCNc1ccc2nnn3c4ccccc4c(=O)c1c23	4.22 µM (inactive)	3.31 µM (inactive)	2.25 µM (inactive)	13.2 µM (inactive)	2.86 µM (inactive)	3.3 µM (inactive)	1.34 µM (inactive)	1.59 µM (inactive)	4.32 µM (inactive)	3.57 µM (inactive)	3.85 µM (inactive)	2.48 µM (inactive)	3.78 µM (inactive)	3.44 µM (inactive)	3.07 µM (inactive)	3.38 µM (inactive)	2.26 µM (inactive)	2.55 µM (inactive)	1.32 µM (inactive)	5.51 µM (inactive)
CN(C)CCCNc1c2ccccc2[n+]([O-])c2ccccc12	74.6 µM (inactive)	31.9 µM (inactive)	27.5 µM (inactive)	19.1 µM (inactive)	31.4 µM (inactive)	22.6 µM (inactive)	13.3 µM (inactive)	39.9 µM (inactive)	31.6 µM (inactive)	54 µM (inactive)	39.3 µM (inactive)	36.5 µM (inactive)	40.6 µM (inactive)	51.8 µM (inactive)	> 100 µM (inactive)	37.3 µM (inactive)	44.6 µM (inactive)	51.4 µM (inactive)	34.5 µM (inactive)	47.8 µM (inactive)
